Experimental data as given in patent publication US10800791B2, “Triazole ACC inhibitors and uses thereof” (Gilead Apollo, LLC, priority 2015, dated 2020).
Converted amounts (≈) assume the structure as drawn. Like-named read-outs stand apart in the source and are kept apart here.

Legend:
[1] = tested on: Collectotrichum graminicola (Cg); assay: Growth inhibition assay of fungal pathogens, Cg; type: cell-based; details: 48 h
Procedure, shortened: (§1)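 Spore suspension in 17% V8 liquid media; cpd final 50/10/2 or 2/0.4/0.08 ppm, 2% DMSO. OD600 + visual, 24 & 48 h; % inhibition at 48 h vs 2% DMSO ctrl.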

[2] = tested on: Fusarium moniliforme (Fm); assay: Growth inhibition assay of fungal pathogens, Fm; type: cell-based; details: for IC90: Fusarium verticillioides, 48 h, read-out: Concentration at 90% Inhibition Fm
Procedure, shortened: as §1

Septoria tritici (St) = assay: Growth inhibition assay of fungal pathogens, St; type: cell-based; details: Zymoseptoria tritici, 48 h
Procedure, shortened: as §1

[3] = tested on: Fusarium virguliforme (Fv); assay: Growth inhibition assay of fungal pathogens, Fv; type: cell-based; details: 48 h
Procedure, shortened: as §1

human (hACC2) = human (hACC2) (Homo sapiens, UniProt O00763); assay: In vitro ACC inhibition assay (ADP-Glo), hACC2; type: biochemical; details: 5 nM ACC2, 20 μM ATP, 20 μM acetyl-CoA
human (hACC2), sequence (O00763 whole entry): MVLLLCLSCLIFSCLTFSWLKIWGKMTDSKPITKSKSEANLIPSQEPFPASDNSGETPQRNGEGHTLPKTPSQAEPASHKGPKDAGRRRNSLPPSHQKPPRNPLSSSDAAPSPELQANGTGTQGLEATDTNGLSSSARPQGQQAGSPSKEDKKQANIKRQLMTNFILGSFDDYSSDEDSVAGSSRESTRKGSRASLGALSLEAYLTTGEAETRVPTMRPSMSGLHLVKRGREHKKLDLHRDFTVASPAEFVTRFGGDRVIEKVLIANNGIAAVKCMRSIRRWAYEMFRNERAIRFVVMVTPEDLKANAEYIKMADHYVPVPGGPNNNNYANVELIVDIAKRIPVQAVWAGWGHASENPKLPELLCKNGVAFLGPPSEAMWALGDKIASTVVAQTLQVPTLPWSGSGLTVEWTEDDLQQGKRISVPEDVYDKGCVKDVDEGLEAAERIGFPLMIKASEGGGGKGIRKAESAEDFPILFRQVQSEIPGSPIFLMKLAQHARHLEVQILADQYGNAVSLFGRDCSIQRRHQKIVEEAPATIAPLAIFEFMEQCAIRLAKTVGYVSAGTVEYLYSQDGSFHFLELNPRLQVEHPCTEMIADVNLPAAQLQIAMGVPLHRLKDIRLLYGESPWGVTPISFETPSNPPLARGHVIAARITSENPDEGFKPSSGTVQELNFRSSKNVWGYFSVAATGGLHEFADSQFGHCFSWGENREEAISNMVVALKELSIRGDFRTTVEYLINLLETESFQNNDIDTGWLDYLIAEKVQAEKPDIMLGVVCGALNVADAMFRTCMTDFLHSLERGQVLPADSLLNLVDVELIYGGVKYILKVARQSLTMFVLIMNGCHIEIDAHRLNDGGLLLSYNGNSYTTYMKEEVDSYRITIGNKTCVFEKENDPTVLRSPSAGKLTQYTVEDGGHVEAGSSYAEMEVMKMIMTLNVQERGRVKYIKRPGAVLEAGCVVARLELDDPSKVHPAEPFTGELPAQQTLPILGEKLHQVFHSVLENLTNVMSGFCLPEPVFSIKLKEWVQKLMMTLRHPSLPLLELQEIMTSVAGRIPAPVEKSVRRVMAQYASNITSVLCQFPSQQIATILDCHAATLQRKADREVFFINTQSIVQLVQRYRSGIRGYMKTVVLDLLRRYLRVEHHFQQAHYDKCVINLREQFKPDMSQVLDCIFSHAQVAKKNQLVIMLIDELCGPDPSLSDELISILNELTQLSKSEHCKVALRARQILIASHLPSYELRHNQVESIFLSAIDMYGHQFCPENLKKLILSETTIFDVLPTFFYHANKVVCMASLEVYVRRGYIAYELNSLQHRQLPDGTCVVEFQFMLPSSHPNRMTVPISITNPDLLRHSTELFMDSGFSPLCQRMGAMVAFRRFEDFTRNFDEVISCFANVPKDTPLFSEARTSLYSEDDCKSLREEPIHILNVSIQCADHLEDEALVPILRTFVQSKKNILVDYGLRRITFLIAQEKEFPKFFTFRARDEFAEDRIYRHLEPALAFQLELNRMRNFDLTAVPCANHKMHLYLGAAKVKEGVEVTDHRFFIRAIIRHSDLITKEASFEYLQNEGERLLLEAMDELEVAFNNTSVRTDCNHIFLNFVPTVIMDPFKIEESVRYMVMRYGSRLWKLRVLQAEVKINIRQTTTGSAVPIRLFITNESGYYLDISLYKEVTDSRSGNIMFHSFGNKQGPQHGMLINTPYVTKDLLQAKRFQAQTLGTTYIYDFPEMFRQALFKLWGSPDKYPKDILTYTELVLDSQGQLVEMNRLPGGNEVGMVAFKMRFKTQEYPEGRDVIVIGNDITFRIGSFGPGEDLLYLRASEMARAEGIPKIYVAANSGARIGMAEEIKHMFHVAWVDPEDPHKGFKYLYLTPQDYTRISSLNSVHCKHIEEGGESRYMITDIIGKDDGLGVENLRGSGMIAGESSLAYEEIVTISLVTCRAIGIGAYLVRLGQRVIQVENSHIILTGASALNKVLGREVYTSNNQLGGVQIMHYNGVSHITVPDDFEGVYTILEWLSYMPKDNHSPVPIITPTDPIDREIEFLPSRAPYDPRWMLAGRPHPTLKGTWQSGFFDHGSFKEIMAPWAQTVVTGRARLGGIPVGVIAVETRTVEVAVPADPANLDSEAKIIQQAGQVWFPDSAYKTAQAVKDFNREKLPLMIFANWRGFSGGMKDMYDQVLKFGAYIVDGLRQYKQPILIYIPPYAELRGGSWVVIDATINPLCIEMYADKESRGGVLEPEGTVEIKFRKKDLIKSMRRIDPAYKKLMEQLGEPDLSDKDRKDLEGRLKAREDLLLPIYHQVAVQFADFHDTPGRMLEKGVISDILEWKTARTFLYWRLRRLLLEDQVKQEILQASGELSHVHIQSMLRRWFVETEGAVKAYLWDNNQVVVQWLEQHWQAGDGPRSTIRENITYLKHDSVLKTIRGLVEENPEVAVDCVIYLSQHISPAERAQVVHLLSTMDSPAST
Procedure: The detailed procedure is as follows. […] 10 μL ADP glo reagent was added. […] 20 μL kinase detection reagent was added.

C. krusei = assay: Antifungal Activity Assay (broth microtiter MIC), C. krusei; type: cell-based, Candida krusei; details: Pichia kudriavzevii, ATCC6258, 48 h
Procedure, shortened: (§2)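 MICs were scored by eye at 48 h relative to the growth control. Plates followed CLSI M27-A3, with Candida suspensions in RPMI 1640+MOPS giving a final 2.5×10^3 CFU/mL; the colonies came from Sabouraud agar grown overnight at 35 °C.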

[4] = tested on: Phytophthora capsici (Pc); assay: Growth inhibition assay of fungal pathogens, Pc; type: cell-based; details: 48 h
Procedure, shortened: as §1

Diplodia maydis (Dm) = assay: Growth inhibition assay of fungal pathogens, Dm; type: cell-based; details: Stenocarpella maydis, 48 h
Procedure, shortened: as §1

Rhizoctonia solani (Rs) = assay: Growth inhibition assay of fungal pathogens, Rs; type: cell-based; details: 48 h
C. albicans = assay: Antifungal Activity Assay (broth microtiter MIC), C. albicans; type: cell-based, Candida albicans; details: Candida albicans, ATCC90028, 48 h
Procedure, shortened: as §2

C. parapsilosis = assay: Antifungal Activity Assay (broth microtiter MIC), C. parapsilosis; type: cell-based, Candida parapsilosis; details: Lodderomyces parapsilosis, ATCC22019, 48 h
Procedure, shortened: as §2

[5] = Fusarium moniliforme, growth inhibition at 48 hours vs 2% DMSO control

With `COc1ccc(F)cc1[C@H](Cn1c(=O)n(C(C)(C)C(=O)NC2CCC2)c(=O)c2c(C)c(-n3nccn3)sc21)OC1CCOCC1` [Compound I-27, (R)—N-cyclobutyl-2-(1-(2-(5-fluoro-2-methoxyphenyl)-2-((tetrahydro-2H-pyran-4-yl)oxy)ethyl)-5-methyl-2,4-dioxo-6-(2H-1,2,3-triazol-2-yl)-1,4-dihydrothieno[2,3-d]pyrimidin-3(2H)-yl)-2-methylpropanamide] the IC90 ([1]; Collectotrichum graminicola, growth inhibition at 48 hours vs 2% DMSO control, read-out: Concentration at 90% Inhibition Cg) was 0.4 mg/L (≈ 0.624 µM), the IC90 ([1]; Collectotrichum graminicola, growth inhibition vs 2% DMSO control at 48 hours, read-out: Concentration at 90% Inhibition Cg) was 0.4 mg/L (≈ 0.624 µM) and the IC90 [2, 5] was 0.08 mg/L (≈ 0.125 µM). For the same compound, the IC90 ([2]; Fusarium moniliforme, growth inhibition vs 2% DMSO control at 48 hours) was 0.08 mg/L (≈ 0.125 µM), the IC90 (Septoria tritici (St); Septoria tritici, growth inhibition at 48 hours vs 2% DMSO control, read-out: Concentration at 90% Inhibition St) was 2 mg/L (≈ 3.12 µM) and the IC90 (Septoria tritici (St); Septoria tritici, growth inhibition vs 2% DMSO control at 48 hours, read-out: Concentration at 90% Inhibition St) was 10 mg/L (≈ 15.6 µM). The IC90 ([3]; growth inhibition at 48 hours vs 2% DMSO control, read-out: Concentration at 90% Inhibition Fv) was 0.4 mg/L (≈ 0.624 µM), the IC90 ([3]; growth inhibition vs 2% DMSO control at 48 hours, read-out: Concentration at 90% Inhibition Fv) was 0.4 mg/L (≈ 0.624 µM) and the IC50 (human (hACC2); Table 2a) was 0.005 to 0.01 µM. For the same compound, the IC50 (human (hACC2); Table 2b, additional results) was 0.005 to 0.01 µM, the MIC (C. krusei; Table 3a, ATCC 6258, 3 replicates, MIC recorded at 48 h, read-out: MIC, C. krusei ATCC 6258) was 0.06 to 0.24 mg/L (≈ 0.0936 to 0.375 µM) and the MIC (C. krusei; Table 3b (additional results), ATCC 6258, 3 replicates, MIC recorded at 48 h, read-out: MIC, C. krusei ATCC 6258) was 0.06 to 0.249 mg/L (≈ 0.0936 to 0.389 µM). It also gave an IC90 ([4]; growth inhibition at 48 hours vs 2% DMSO control, read-out: Concentration at 90% Inhibition Pc) of 10 mg/L (≈ 15.6 µM), an IC90 ([4]; growth inhibition vs 2% DMSO control at 48 hours, read-out: Concentration at 90% Inhibition Pc) greater than 50 mg/L and an IC90 (Diplodia maydis (Dm); Diplodia maydis, growth inhibition at 48 hours vs 2% DMSO control, read-out: Concentration at 90% Inhibition Dm) of 0.4 mg/L (≈ 0.624 µM). It also gave an IC90 (Diplodia maydis (Dm); Diplodia maydis, growth inhibition vs 2% DMSO control at 48 hours, read-out: Concentration at 90% Inhibition Dm) of 0.4 mg/L (≈ 0.624 µM), an IC90 (Rhizoctonia solani (Rs); mycelial plugs, growth inhibition at 48 hours vs 2% DMSO control, read-out: Concentration at 90% Inhibition Rs) of 0.08 mg/L (≈ 0.125 µM) and an IC90 (Rhizoctonia solani (Rs); mycelial plugs, growth inhibition vs 2% DMSO control at 48 hours, read-out: Concentration at 90% Inhibition Rs) of 0.08 mg/L (≈ 0.125 µM). It also gave an MIC (C. albicans; Table 3a, ATCC 90028, 3 replicates, MIC recorded at 48 h, read-out: MIC, C. albicans ATCC 90028) of 0.25 to 1 mg/L (≈ 0.39 to 1.56 µM), an MIC (C. albicans; Table 3b (additional results), ATCC 90028, 3 replicates, MIC recorded at 48 h, read-out: MIC, C. albicans ATCC 90028) of 0.25 to 1 mg/L (≈ 0.39 to 1.56 µM) and an MIC (C. parapsilosis; Table 3a, ATCC 22019, 3 replicates, MIC recorded at 48 h, read-out: MIC, C. parapsilosis ATCC 22019) of 0.25 to 1 mg/L (≈ 0.39 to 1.56 µM). It also gave an MIC (C. parapsilosis; Table 3b (additional results), ATCC 22019, 3 replicates, MIC recorded at 48 h, read-out: MIC, C. parapsilosis ATCC 22019) of 0.25 to 1 mg/L (≈ 0.39 to 1.56 µM).
For `COc1ccc(F)cc1[C@H](Cn1c(=O)n(C(C)(C)C(=O)NC2CCCCC2)c(=O)c2c(C)c(-n3nccn3)sc21)OC1CCOCC1` [Compound I-28, (R)—N-cyclohexyl-2-(1-(2-(5-fluoro-2-methoxyphenyl)-2-((tetrahydro-2H-pyran-4-yl)oxy)ethyl)-5-methyl-2,4-dioxo-6-(2H-1,2,3-triazol-2-yl)-1,4-dihydrothieno[2,3-d]pyrimidin-3(2H)-yl)-2-methylpropanamide], the IC90 ([1]; read-out: Concentration at 90% Inhibition Cg, Collectotrichum graminicola, growth inhibition at 48 hours vs 2% DMSO control) was 2 mg/L (≈ 2.99 µM), the IC90 ([1]; read-out: Concentration at 90% Inhibition Cg, Collectotrichum graminicola, growth inhibition vs 2% DMSO control at 48 hours) was 2 mg/L (≈ 2.99 µM) and the “Concentration at 90% Inhibition Fm” value [2, 5] was “AA (compound concentration of 0.08 ppm at 90% inhibition of fungal pathogens)”. For the same compound, the IC90 [2] was 0.08 mg/L (≈ 0.12 µM), the IC90 (Septoria tritici (St); read-out: Concentration at 90% Inhibition St, Septoria tritici, growth inhibition at 48 hours vs 2% DMSO control) was 2 mg/L (≈ 2.99 µM) and the IC90 (Septoria tritici (St); read-out: Concentration at 90% Inhibition St, Septoria tritici, growth inhibition vs 2% DMSO control at 48 hours) was 10 mg/L (≈ 15 µM). For the same compound, the IC90 ([3]; read-out: Concentration at 90% Inhibition Fv, Fusarium virguliforme, growth inhibition at 48 hours vs 2% DMSO control) was 0.4 mg/L (≈ 0.598 µM), the IC90 ([3]; read-out: Concentration at 90% Inhibition Fv, Fusarium virguliforme, growth inhibition vs 2% DMSO control at 48 hours) was 0.4 mg/L (≈ 0.598 µM) and the IC50 (human (hACC2); Table 2a) was 0.01 to 0.04 µM. The IC50 (human (hACC2); Table 2b, additional results) was 0.01 to 0.04 µM, the MIC (C. krusei; read-out: MIC, C. krusei ATCC 6258, Table 3a, 3 replicates, MIC recorded at 48 h) was 0.06 to 0.24 mg/L (≈ 0.0897 to 0.359 µM) and the MIC (C. krusei; read-out: MIC, C. krusei ATCC 6258, Table 3b (additional results), 3 replicates, MIC recorded at 48 h) was 0.06 to 0.249 mg/L (≈ 0.0897 to 0.372 µM). For the same compound, the IC90 ([4]; read-out: Concentration at 90% Inhibition Pc, Phytophthora capsici, growth inhibition at 48 hours vs 2% DMSO control) was greater than 50 mg/L, the IC90 ([4]; read-out: Concentration at 90% Inhibition Pc, Phytophthora capsici, growth inhibition vs 2% DMSO control at 48 hours) was greater than 50 mg/L and the IC90 (Diplodia maydis (Dm); read-out: Concentration at 90% Inhibition Dm, Diplodia maydis, growth inhibition at 48 hours vs 2% DMSO control) was 0.4 mg/L (≈ 0.598 µM). The IC90 (Diplodia maydis (Dm); read-out: Concentration at 90% Inhibition Dm, Diplodia maydis, growth inhibition vs 2% DMSO control at 48 hours) was 0.4 mg/L (≈ 0.598 µM), the IC90 (Rhizoctonia solani (Rs); read-out: Concentration at 90% Inhibition Rs, Rhizoctonia solani, mycelial plugs, growth inhibition at 48 hours vs 2% DMSO control) was 0.4 mg/L (≈ 0.598 µM) and the IC90 (Rhizoctonia solani (Rs); read-out: Concentration at 90% Inhibition Rs, Rhizoctonia solani, mycelial plugs, growth inhibition vs 2% DMSO control at 48 hours) was 0.4 mg/L (≈ 0.598 µM). It also gave an MIC (C. albicans; read-out: MIC, C. albicans ATCC 90028, Table 3a, 3 replicates, MIC recorded at 48 h) of 0.25 to 1 mg/L (≈ 0.374 to 1.5 µM), an MIC (C. albicans; read-out: MIC, C. albicans ATCC 90028, Table 3b (additional results), 3 replicates, MIC recorded at 48 h) of 0.25 to 1 mg/L (≈ 0.374 to 1.5 µM) and an MIC (C. parapsilosis; read-out: MIC, C. parapsilosis ATCC 22019, Table 3a, 3 replicates, MIC recorded at 48 h) of 0.25 to 1 mg/L (≈ 0.374 to 1.5 µM). For the same compound, the MIC (C. parapsilosis; read-out: MIC, C. parapsilosis ATCC 22019, Table 3b (additional results), 3 replicates, MIC recorded at 48 h) was 0.25 to 1 mg/L (≈ 0.374 to 1.5 µM).
